{"source": "ChEMBL document CHEMBL5528082", "about": "(J Med Chem, 2024)", "key": {"Dihydrofolate reductase [1]": {"molecular_target": "T1, Dihydrofolate reductase (Homo sapiens, UniProt P00374)", "T1 sequence (P00374 whole entry)": "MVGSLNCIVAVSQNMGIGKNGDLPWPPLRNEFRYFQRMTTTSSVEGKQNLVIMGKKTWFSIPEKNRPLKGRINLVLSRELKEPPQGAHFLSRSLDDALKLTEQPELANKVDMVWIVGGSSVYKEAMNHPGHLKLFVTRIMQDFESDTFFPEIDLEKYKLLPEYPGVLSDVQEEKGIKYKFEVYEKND", "test": "Inhibition of human DHFR"}, "Staphylococcus aureus [2]": {"system": "Staphylococcus aureus", "test": "Antibacterial activity against Staphylococcus aureus ATCC 25923 incubated for 24 hrs by CLSI based broth microdilution assay", "format": "functional"}, "Staphylococcus aureus [3]": {"system": "Staphylococcus aureus", "test": "Antibacterial activity against Staphylococcus aureus USA 300 incubated for 24 hrs by CLSI based broth microdilution assay", "format": "functional"}, "Staphylococcus aureus [4]": {"system": "Staphylococcus aureus", "test": "Antibacterial activity against TMP-resistant Staphylococcus aureus BHKS 721 incubated for 24 hrs by CLSI based broth microdilution assay", "format": "functional"}, "Staphylococcus aureus [5]": {"system": "Staphylococcus aureus", "test": "Antibacterial activity against TMP-resistant Staphylococcus aureus BHKS 723 incubated for 24 hrs by CLSI based broth microdilution assay", "format": "functional"}, "[6]": {"test": "Cytotoxicity against HEK293 cells assessed as inhibition rate of cell growth at 100 uM incubated for 24 hrs by CCK8 assay relative to control", "format": "toxicity, cell-based", "conditions": "human"}, "[7]": {"test": "Cytotoxicity against human NCM460 cells assessed as inhibition rate of cell growth at 100 uM incubated for 24 hrs by CCK8 assay relative to control", "format": "toxicity, cell-based"}, "Dihydrofolate reductase [8]": {"molecular_target": "T2, Dihydrofolate reductase (Staphylococcus aureus, UniProt P0A017)", "T2 sequence (P0A017 whole entry)": "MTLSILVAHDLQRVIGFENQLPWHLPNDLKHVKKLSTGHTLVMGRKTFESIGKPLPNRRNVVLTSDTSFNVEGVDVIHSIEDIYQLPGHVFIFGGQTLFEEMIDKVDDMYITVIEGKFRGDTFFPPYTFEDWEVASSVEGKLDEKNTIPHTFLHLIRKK", "test": "Inhibition of Staphylococcus aureus DHFR expressed in Escherichia coli BL21 (DE3) using DHF as substrate preincubated for 10 mins followed by substrate addition measured for 10 mins in presence of NADPH by spectrophotometry"}, "Staphylococcus aureus [9]": {"system": "Staphylococcus aureus", "test": "Bactericidal activity against Staphylococcus aureus ATCC 25923 assessed as bacterial growth suppression measured for 24 hrs by time kill assay", "format": "functional, organism-based"}, "[10]": {"test": "Acute toxicity in C57 mouse assessed as animal death at 800 mg/kg, po measured after 1 week", "format": "organism-based", "conditions": "in vivo, 168 h, time 1 weeks"}, "[11]": {"test": "Acute toxicity in C57 mouse assessed as body weight loss at 400 to 800 mg/kg, po measured for 2 days", "format": "organism-based", "conditions": "in vivo, 48 h, dose 400-800 mg/kg, time 2 day"}, "[12]": {"test": "Acute toxicity in C57 mouse assessed as body weight loss at 400 to 800 mg/kg, po measured for 4 days", "format": "organism-based", "conditions": "in vivo, 96 h, dose 400-800 mg/kg, time 4 day"}, "[13]": {"test": "Acute toxicity in C57 mouse assessed as damage in spleen at 800 mg/kg, po measured after 1 week by H and E staining based analysis", "format": "organism-based", "conditions": "in vivo, 168 h, time 1 weeks"}, "[14]": {"test": "Acute toxicity in C57 mouse assessed as damage in lung at 800 mg/kg, po measured after 1 week by H and E staining based analysis", "format": "organism-based", "conditions": "in vivo, 168 h, time 1 weeks"}, "[15]": {"test": "Metabolic stability in human liver microsomes assessed as clearance rate at 3 uM measured for 120 mins by LC-MS/MS analysis", "format": "ADME, Microsome", "conditions": "2 h"}, "[16]": {"test": "Metabolic stability in mouse liver microsomes assessed as clearance rate at 3 uM measured for 120 mins by LC-MS/MS analysis", "format": "ADME, Microsome", "conditions": "2 h"}, "[17]": {"test": "Cmax in Sprague-Dawley rat at 5 mg/kg, iv measured for 24 hrs by LC/MS analysis", "format": "ADME, organism-based", "conditions": "in vivo"}, "[18]": {"test": "Tmax in Sprague-Dawley rat at 5 mg/kg, iv measured for 24 hrs by LC/MS analysis", "format": "ADME, organism-based", "conditions": "in vivo"}, "[19]": {"test": "Clearance in Sprague-Dawley rat at 5 mg/kg, iv measured for 24 hrs by LC/MS analysis", "format": "ADME, organism-based", "conditions": "in vivo"}, "[20]": {"test": "AUC (0 to t) in Sprague-Dawley rat at 5 mg/kg, iv measured for 24 hrs by LC/MS analysis", "format": "ADME, organism-based", "conditions": "in vivo"}, "[21]": {"test": "Cmax in Sprague-Dawley rat at 15 mg/kg, po measured for 24 hrs by LC/MS analysis", "format": "ADME, organism-based", "conditions": "in vivo"}, "[22]": {"test": "AUC (0 to t) in Sprague-Dawley rat at 15 mg/kg, po measured for 24 hrs by LC/MS analysis", "format": "ADME, organism-based", "conditions": "in vivo"}, "Staphylococcus aureus [23]": {"system": "Staphylococcus aureus", "test": "Antibacterial activity against methicillin-resistant Staphylococcus aureus ATCC 33591 infected in C57 mouse model assessed as body weight recovery at 2 to 10 mg/kg administered once a day for 3 days consecutively and measured after 24 hrs post-last dose", "format": "functional, organism-based", "conditions": "dose 2-10 mg/kg, time 4.0 day"}, "Staphylococcus aureus [24]": {"system": "Staphylococcus aureus", "test": "Antibacterial activity against methicillin-resistant Staphylococcus aureus ATCC 33591 infected in C57 mouse model assessed as decrease in skin abscess at 2 to 10 mg/kg administered once a day for 3 days consecutively and measured after 24 hrs post-last dose", "format": "functional, organism-based", "conditions": "dose 2-10 mg/kg, time 4.0 day"}, "Staphylococcus aureus [25]": {"system": "Staphylococcus aureus", "test": "Antibacterial activity against methicillin-resistant Staphylococcus aureus ATCC 33591 infected in C57 mouse model assessed as decrease in pathological change at 2 to 10 mg/kg administered once a day for 3 days consecutively and measured after 24 hrs post-last dose by H and E staining based analysis", "format": "functional, organism-based", "conditions": "dose 2-10 mg/kg, time 4.0 day"}, "Staphylococcus aureus [26]": {"system": "Staphylococcus aureus", "test": "Antibacterial activity against methicillin-resistant Staphylococcus aureus ATCC 33591 infected in C57 mouse model assessed as clear skin structure at 2 to 10 mg/kg administered once a day for 3 days consecutively and measured after 24 hrs post-last dose by H and E staining based analysis", "format": "functional, organism-based", "conditions": "dose 2-10 mg/kg, time 4.0 day"}, "Mus musculus": {"system": "Mus musculus", "test": "Induction of inflammatory cell infiltration in C57 mouse model infected with methicillin-resistant Staphylococcus aureus ATCC 33591 at 2 to 10 mg/kg administered once a day for 3 days consecutively and measured after 24 hrs post-last dose by H and E staining based analysis", "format": "functional, organism-based", "conditions": "dose 2-10 mg/kg, time 4.0 day"}, "Dihydrofolate reductase [27]": {"molecular_target": "T2, Dihydrofolate reductase", "test": "Binding affinity to Staphylococcus aureus DHFR expressed in Escherichia coli BL21 (DE3) assessed dissociation constant by ITC analysis"}, "Staphylococcus aureus [28]": {"system": "Staphylococcus aureus", "test": "Synergistic antibacterial activity against Staphylococcus aureus USA 300 assessed as fractional inhibitory concentration index incubated for 24 hrs in presence of SMX by CLSI based broth microdilution assay", "format": "functional"}, "Staphylococcus aureus [29]": {"system": "Staphylococcus aureus", "test": "Synergistic antibacterial activity against TMP-resistant Staphylococcus aureus BHKS 227 assessed as fractional inhibitory concentration index incubated for 24 hrs in presence of SMX by CLSI based broth microdilution assay", "format": "functional"}, "Staphylococcus aureus [30]": {"system": "Staphylococcus aureus", "test": "Synergistic antibacterial activity against TMP-resistant Staphylococcus aureus BHKS 721 assessed as fractional inhibitory concentration index incubated for 24 hrs in presence of SMX by CLSI based broth microdilution assay", "format": "functional"}, "Staphylococcus aureus [31]": {"system": "Staphylococcus aureus", "test": "Synergistic antibacterial activity against TMP-resistant Staphylococcus aureus BHKS 723 assessed as fractional inhibitory concentration index incubated for 24 hrs in presence of SMX by CLSI based broth microdilution assay", "format": "functional"}, "Staphylococcus aureus [32]": {"system": "Staphylococcus aureus", "test": "Synergistic antibacterial activity against TMP-resistant Staphylococcus aureus BHKS 231 assessed as fractional inhibitory concentration index incubated for 24 hrs in presence of SMX by CLSI based broth microdilution assay", "format": "functional"}, "Staphylococcus aureus [33]": {"system": "Staphylococcus aureus", "test": "Antibacterial activity against TMP-resistant Staphylococcus aureus BHKS 231 incubated for 24 hrs by CLSI based broth microdilution assay", "format": "functional"}, "[34]": {"system": "Dihydrofolate reductase (Staphylococcus aureus)", "conditions": "dose 100.0 nM"}, "[35]": {"molecular_target": "Dihydrofolate reductase (Staphylococcus aureus) (UniProt P0A017)", "sequence (P0A017 2-159 limits assumed)": "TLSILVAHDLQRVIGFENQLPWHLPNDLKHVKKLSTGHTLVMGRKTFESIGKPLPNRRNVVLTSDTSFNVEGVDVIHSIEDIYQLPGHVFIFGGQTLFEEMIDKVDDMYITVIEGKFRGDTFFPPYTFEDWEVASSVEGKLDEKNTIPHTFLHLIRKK", "conditions": "dose 10.0 µM, time 10.0 min"}}, "note": "The source made the active and inactive calls. No cut-off for these calls is given here.", "data": [{"smiles": "CC(C)c1cc(OCC2CC2)c(I)cc1Oc1cnc(N)nc1N", "values": [{"measurement": "IC50", "setting": "Dihydrofolate reductase [1]", "value": 4.19, "unit": "µM"}, {"measurement": "MIC", "setting": "Staphylococcus aureus [2]", "value": 0.031, "unit": "µg/mL"}, {"measurement": "MIC", "setting": "Staphylococcus aureus [3]", "value": 0.031, "unit": "µg/mL"}, {"measurement": "MIC", "setting": "Staphylococcus aureus [4]", "value": 4, "unit": "µg/mL"}, {"measurement": "MIC", "setting": "Staphylococcus aureus [5]", "value": 2, "unit": "µg/mL"}, {"measurement": "inhibition at 24 h, 100 µM", "setting": "[6]", "value": 59.1, "unit": "%"}, {"measurement": "inhibition at 24 h, 100 µM", "setting": "[7]", "value": 20.2, "unit": "%"}, {"measurement": "IC50", "setting": "Dihydrofolate reductase [8]", "value": 0.00097, "unit": "µM"}, {"measurement": "Activity", "setting": "Staphylococcus aureus [9]", "value": "Dose-Dependent Effect"}, {"measurement": "Activity", "setting": "[10]", "value": "Non-Toxic"}, {"measurement": "Activity", "setting": "[11]", "value": "Toxic"}, {"measurement": "Activity", "setting": "[12]", "value": "Non-Toxic"}, {"measurement": "Activity", "setting": "[13]", "value": "Non-Toxic"}, {"measurement": "Activity", "setting": "[14]", "value": "Non-Toxic"}, {"measurement": "CLH", "setting": "[15]", "value": 0.7, "unit": "µL/min/mg"}, {"measurement": "CLH", "setting": "[16]", "value": 4.1, "unit": "µL/min/mg"}, {"measurement": "Cmax", "setting": "[17]", "value": 4060, "unit": "ng/mL"}, {"measurement": "Tmax", "setting": "[18]", "value": 4.8, "unit": "min"}, {"measurement": "clearance", "setting": "[19]", "value": 25, "unit": "mL/min/kg"}, {"measurement": "AUC(0-t) at 24 h", "setting": "[20]", "value": 3240, "unit": "ng·h/mL"}, {"measurement": "Cmax", "setting": "[21]", "value": 579, "unit": "ng/mL"}, {"measurement": "AUC(0-t) at 24 h", "setting": "[22]", "value": 3920, "unit": "ng·h/mL"}, {"measurement": "Activity", "setting": "Staphylococcus aureus [23]", "value": "Active"}, {"measurement": "Activity", "setting": "Staphylococcus aureus [24]", "value": "Active"}, {"measurement": "Activity", "setting": "Staphylococcus aureus [25]", "value": "Active"}, {"measurement": "Activity", "setting": "Staphylococcus aureus [26]", "value": "Active"}, {"measurement": "Activity", "setting": "Mus musculus", "value": "Active"}, {"measurement": "Kd", "setting": "Dihydrofolate reductase [27]", "value": 1.54, "unit": "µM"}, {"measurement": "fractional inhibitory concentration index (FICI)", "setting": "Staphylococcus aureus [28]", "value": 0.022}, {"measurement": "fractional inhibitory concentration index (FICI)", "setting": "Staphylococcus aureus [29]", "value": 0.27}, {"measurement": "fractional inhibitory concentration index (FICI)", "setting": "Staphylococcus aureus [30]", "value": 0.375}, {"measurement": "fractional inhibitory concentration index (FICI)", "setting": "Staphylococcus aureus [31]", "value": 0.156}, {"measurement": "fractional inhibitory concentration index (FICI)", "setting": "Staphylococcus aureus [32]", "value": 1}, {"measurement": "MIC", "setting": "Staphylococcus aureus [33]", "value": 32, "unit": "µg/mL"}, {"measurement": "inhibition", "setting": "[34]", "value": 47.4, "unit": "%"}, {"measurement": "ΔTm", "setting": "[35]", "value": 18, "unit": "°C"}]}]}
